Test results reported in patent US20230330059A1, “3-PHENYL-2H-CHROMENE DERIVATIVE AND PHARMACEUTICAL COMPOSITION FOR PREVENTING OR TREATING ALZHEIMER'S, CONTAINING SAME” (NEUROBIONET, INC., priority 2020, published 2023).
Where two headings read alike, the source gives them in different places.

Legend:
[1] = test system: NGF release in C6 cells; experiment: Nerve growth factor (NGF) release in C6 cells (ELISA); assay type: cell-based, rat; conditions: 5 µM, 24 hours, compared to the normal group, FIG. 13
Description: C6 cells were seeded at a density of 4x10^5 cells/well into 96-well plates and stabilized for 24 hours. Thereafter, the cells were treated with 5 µM of daidzein, o-desmethylangolensin, S-equal, SPA1413, or SPA1426 for 24 hours. The culture medium was collected and quantitatively measured for NGF released to the C6 culture supernatant using the enzyme immunoassay method Competitive Enzyme-Linked Immuno Assay (ELISA) kit (R&D systems, Minneapolis, MN, USA). The NGF releases from the groups treated with the samples were evaluated relative to that from the normal group, which was set to be 100%, and the results are depicted in FIG. 13.

[2] = test system: IL-6; experiment: IL-6 production (ELISA) in LPS-treated BV2 cells; assay type: cell-based, mouse; conditions: 5 µM, LPS (100 ng/ml) 24 hours, FIG. 10a
Description: BV2 cells were seeded at a density of 4x10^5 cells/well into 96-well plates and stabilized for 24 hours. Thereafter, the cells were treated with 5 µM of daidzein, o-desmethylangolensin, S-equal, SPA1413, or SPA1426 for 30 minutes and then with LPS (100 ng/ml) for 24 hours at 37° C. The culture medium was collected and quantitatively measured for IL-6 and TNF-a released to the BV2 culture supernatant, using the enzyme immunoassay method […] Enzyme-Linked Immuno Assay (ELISA) kit (R&D systems, Minneapolis, MN, USA). The IL-6 and TNF-a releases from the groups treated with the samples were evaluated relative to that from the LPS-treated group, which was set to be 100%, and the results are depicted in FIGS. 10a and 10b.

[3] = target: MGO-AGEs (Bos taurus, UniProt P02769); experiment: Breaking of MGO-induced advanced glycation end products (TNBSA free amine); assay type: biochemical
Description: Bovine serum albumin (BSA) was stored at 37° C. for 7 days in mixture with methylglyoxal (MGO) and sodium azide) to prepare AGEs. The AGEs derived from MGO are referred to as “MGO-AGEs”. MGO-AGEs with a concentration of 1 mg/ml were treated for 24 hours with various concentrations (0.1, 0.2, and 0.4 mM) of SPA1413. As a positive control, aminoguanidine (AG), known as an AGE inhibitor, was used. MGO-AGEs were reacted with 2,4,6-trinitrobenzene sulfonic acid (TNBSA) and 4% sodium bicarbonate, followed by adding 10% sodium dodecyl sulfate and 1 N HCl to terminate the reaction. Absorbance was read at 335 nm accounting for free amines, which resulted from the breaking degradation of AGEs, in a microplate to evaluate the efficacy of degrading AGEs.

[4] = test system: iNOS; experiment: iNOS protein expression (western blot) in LPS-treated BV2 cells; assay type: cell-based, mouse; conditions: 5 µM, LPS (100 ng/ml) 24 hours, FIG. 11b
Description: (§1) BV2 cells were aliquoted at a density of 1x10^6 cells/well into 60 mm dishes and stabilized for 24 hours. Thereafter, the cells were treated with 5 µM of S-equal, SPA1413, or SPA1426 for 30 minutes and then with LPS (100 ng/ml) for 24 hours at 37° C. After being cultured to reach 100% confluence, the cells were washed with PBS and lysed with a lysis buffer (PRO-PREP™ Protein Extraction Solution, Intron Biotechnology, Seongnam, Korea). With bovine serum albumin (BSA) serving as a standard, the protein contents of the lysate supernatants were measured by Bio-Rad Protein Assay (Bio-Rad, California, USA) to determine the total protein content in each sample. Afterwards, each of the samples was loaded in a protein amount of 30 µg on a 10-12% SDS-PAGE gel and run for electrophoresis. The electrophorized proteins were transferred to a PVDF membrane which was then blocked with 5% skim milk and incubated with antibodies to COX-2 or iNOS (Cell Signaling Technologies, Massachusetts, USA). Detection was conducted with a ChemiDoc XRS+ imaging system (Bio-Rad, CA, USA).

[5] = test system: COX-2; experiment: COX-2 protein expression (western blot) in LPS-treated BV2 cells; assay type: cell-based, mouse; conditions: 5 µM, LPS (100 ng/ml) 24 hours, FIG. 11a
Description: as §1

[6] = test system: nitric oxide production in LPS-treated primary microglia; experiment: Nitric oxide production (Griess) in LPS-treated primary microglia; assay type: cell-based, ICR mice; conditions: FIG. 9a
Description: (§2) BV2 cells were seeded at a density of 4 x 10^5 cells/well into 96-well plates, and primary microglial cells isolated from the brain of […] ICR mice were seeded at a density of 4 x 10^5 cells/well into 24-well plates.
(§3) After stabilization for 24 hours, the cells were treated with various concentrations (1 and 5 µM) of daidzein, o-desmethylangolensin, S-equal, SPA1413, and SPA1426 for 30 minutes and then with LPS (100 ng/ml) for 24 hours at 37° C. The culture media were collected and measured for NO production using a Griess reagent solution (1% sulfanilamide and 0.1% N-1-naphthyl ethylenediamine dihydrochloride in 5% phosphoric acid). Briefly, a total of 50 µL of the supernatant was transferred to new 96-well plates and mixed with the same volume of the Griess reagent solution, followed by measuring OD at 570 nm. In addition, the cell viability was assayed in the same manner as in Experimental Example 2.

[7] = test system: p38; experiment: p38 protein expression (western blot) in LPS-treated BV2 cells; assay type: cell-based, mouse; conditions: 5 µM, compared to the LPS-treated group, FIG. 12b
Description: as §1, with “JNK” for “COX-2”, “p38” for “iNOS”

[8] = test system: nitric oxide production in LPS-treated BV2 cells; experiment: Nitric oxide production (Griess) in LPS-treated BV2 cells; assay type: cell-based, mouse; conditions: for NO production: LPS-treated BV2 cells, FIG. 4 (lower), 8a; for IC50: Mus musculus, read-out: IC50 (NO production)
Description: as §2
as §3, with “The” for “After stabilization for 24 hours, the cells were treated with various concentrations (1 and 5 µM) of daidzein, o-desmethylangolensin, S-equal, SPA1413, and SPA1426 for 30 minutes and then with LPS (100 ng/ml) for 24 hours at 37° C. The”

Sequence of MGO-AGEs (P02769 25-607): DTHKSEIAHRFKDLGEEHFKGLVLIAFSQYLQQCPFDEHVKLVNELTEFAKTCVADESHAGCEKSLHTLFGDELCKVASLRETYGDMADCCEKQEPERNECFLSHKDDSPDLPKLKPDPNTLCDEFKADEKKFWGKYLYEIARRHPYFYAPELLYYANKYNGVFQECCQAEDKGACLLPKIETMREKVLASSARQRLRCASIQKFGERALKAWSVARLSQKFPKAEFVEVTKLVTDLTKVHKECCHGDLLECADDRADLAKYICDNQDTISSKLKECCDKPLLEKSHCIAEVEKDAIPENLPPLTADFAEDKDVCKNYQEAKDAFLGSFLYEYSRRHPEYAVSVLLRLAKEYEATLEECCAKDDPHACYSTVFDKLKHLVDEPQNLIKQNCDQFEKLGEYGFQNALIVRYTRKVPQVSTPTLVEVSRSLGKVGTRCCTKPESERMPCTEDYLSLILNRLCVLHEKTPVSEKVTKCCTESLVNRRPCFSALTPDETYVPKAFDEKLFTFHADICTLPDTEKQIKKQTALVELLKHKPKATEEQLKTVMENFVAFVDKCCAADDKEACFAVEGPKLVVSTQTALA

SMILES: CCCC(=O)Oc1ccc(C2=Cc3ccc(OC(=O)CCC)cc3OC2)cc1 [SPA1426, 4-(7-(butyryloxy)-2H-chromen-3-yl)phenyl butyrate]
- NGF content [1]: significantly increased
- IL-6 production [2]: significantly decreased
- free amines from breaking of MGO-AGEs, compared to SPA1413 ([3]; FIG. 19): higher levels of free amines
- expression level of iNOS [4]: significantly decreased
- expression level of COX-2 [5]: significantly decreased
- NO production [6]: decreased NO production in dose-dependent manners
- expression level of P38 protein [7]: decreased
- NO production [8]: decreased NO production in dose-dependent manners
- IC50 ([8]; BV-2, LPS (100 ng/ml) 24 hours, Griess reagent, cell type not stated in Table 1): 3.67 µM

SMILES: Oc1ccc(C2=Cc3ccc(O)cc3OC2)cc1 [SPA1413, 3-(4-Hydroxyphenyl)-2H-chromen-7-ol]
- NGF content [1]: significantly increased
- IL-6 production [2]: significantly decreased
- free amines from breaking of MGO-AGEs, compared to the negative control (MGO-AGEs) ([3]; 0.1, 0.2 and 0.4 mM, 24 hours, MGO-AGEs 1 mg/ml, FIG. 18): increased levels of free amines
- expression level of iNOS [4]: significantly decreased
- expression level of COX-2 [5]: significantly decreased
- NO production [6]: decreased NO production in dose-dependent manners
- expression level of P38 protein [7]: decreased
- NO production [8]: decreased NO production in dose-dependent manners
- IC50 ([8]; BV-2, 24 h): 5.2 µM
